{"source": "patent US6673340B1", "about": "“Basement membrane degrading proteases as insect toxins and methods of use for same” (Iowa State University Research Foundation, Inc., priority 1999, dated 2004)", "system": "zinc metalloproteases", "assay": "Azocoll assay with selective protease inhibitor", "assay_type": "biochemical", "settings": "1 mM inhibitor, azocoll assay pH 7.6", "description": "Azocoll assays were carried out as described by Fisher and Werb (1995). For assays on medium from cells infected with the viruses expressing the mammalian proteases, all medium samples were concentrated 10-fold except for medium from AcMLF9.STR1-infected cells. Samples for analysis of S. peregrina cathepsin L expression were not concentrated. Aliquots of infected cell medium (2.5 μl for AcMLF9. ScathL-infected cells, 40 μl for all other samples) were mixed with 200 μl of 2 mg/ml azocoll suspended either in 50 mM Tris, pH 7.6-10 mM CaCl2-200 mM NaCl-50 μM ZnSO4 (for detection of stromelysin-1 and gelatinase A activity) or in 0.1 M sodium acetate, pH 5.0 (for detection of cathepsin L activity) in a final volume of 240 μl. A control reaction with sufficient dispase (Boehringer Mannheim, Indianapolis, Ind.) to digest all azocoll in the reaction tube was used as a standard. […] Absorbance of the supernatant was measured at 520 nm for each reaction, and mg azocoll digested/ml medium was calculated based on the absorbance of the dispase control reaction (Fisher, S. J., and Werb, Z. 1995. The catabolism of extracellular matrix components. In “Extracellular Matrix: A Practical Approach” (M. A. Haralson, and J. R. Hassell, Eds.), pp. 261-287. Oxford University Press, New York)."}
{"smiles": "c1cnc2c(c1)ccc1cccnc12", "note": "[1,10-phenanthroline]", "values": [{"measurement": "Inhibition of proteolytic activity in supernatants of stromelysin- and gelatinase-expressing virus infections", "value": "inhibited"}]}
